In patent US20240132484A1, “BROAD SPECTRUM ANTIVIRAL COMPOUNDS TARGETING THE SKI COMPLEX” (priority 2020, published 2024):
Where “and” joins values, the source holds several entries; their conditions need not be identical. Identical values can stand only once. Like-named read-outs stand apart in the source and are kept apart here.

Legend:
[1] = tested on: SARS2; format: cell-based, SARS-CoV-2; conditions: for Infection Data, Average, Mean percentage infection relative to DMSO control: Average of Exp 1 (SMW506) and Exp 2 (SMW507); for Infection Data, Percentage Infection Relative to Appropriate DMSO Control: single well, avg background subtraction
[2] = tested on: cells (nuclei count); conditions: for Toxicity Data, Average, Mean (percentage relative to appropriate DMSO control): average of Exp 1 and Exp 2, n=4; for Toxicity Data, Percentage Relative to Appropriate DMSO Control: single well

`COc1ccc(CNCCc2ccccc2F)c(OCC(O)CN2CCOCC2)c1` (centres unmarked) [SILCS49] was tested, and the “Infection Data, Average, Mean percentage infection relative to DMSO control” value ([1]; n=4, 1 uM) was 90.24%, the “Infection Data, Average, Mean percentage infection relative to DMSO control” value ([1]; n=4, 5 uM) was 54.75% and the “Infection Data, Average, Mean percentage infection relative to DMSO control” value ([1]; n=4, 10 uM) was 29.10%. For the same molecule, the “Infection Data, Average, Mean percentage infection relative to DMSO control” value ([1]; n=4, 25 uM) was 27.11%, the “Infection Data, Average, Mean percentage infection relative to DMSO control” value ([1]; n=4, 50 uM) was 13.54% and the “Infection Data, Percentage Infection Relative to Appropriate DMSO Control” value ([1]; Exp 1 (SMW506), 1 uM) was 101.13% and 94.70%. For the same molecule, the “Infection Data, Percentage Infection Relative to Appropriate DMSO Control” value ([1]; Exp 1 (SMW506), 5 uM) was 55.30% and 50.40%, the “Infection Data, Percentage Infection Relative to Appropriate DMSO Control” value ([1]; Exp 1 (SMW506), 10 uM) was 38.04% and 34.18% and the “Infection Data, Percentage Infection Relative to Appropriate DMSO Control” value ([1]; Exp 1 (SMW506), 25 uM) was 27.25% and 33.31%. The “Infection Data, Percentage Infection Relative to Appropriate DMSO Control” value ([1]; Exp 1 (SMW506), 50 uM) was 9.17% and 7.35%, the “Infection Data, Percentage Infection Relative to Appropriate DMSO Control” value ([1]; Exp 2 (SMW507), 1 uM) was 67.31% and 97.84% and the “Infection Data, Percentage Infection Relative to Appropriate DMSO Control” value ([1]; Exp 2 (SMW507), 5 uM) was 52.91% and 60.38%. For the same molecule, the “Infection Data, Percentage Infection Relative to Appropriate DMSO Control” value ([1]; Exp 2 (SMW507), 10 uM) was 23.33% and 20.87%, the “Infection Data, Percentage Infection Relative to Appropriate DMSO Control” value ([1]; Exp 2 (SMW507), 25 uM) was 29.98% and 17.91% and the “Infection Data, Percentage Infection Relative to Appropriate DMSO Control” value ([1]; Exp 2 (SMW507), 50 uM) was 19.58% and 18.05%. The “Percentage Inhibition Average 1 μM” value ([1]; SARS2, 1 μM) was 9.76%, the “Screening data (Relative infection to DMSO controls) Average 1 μM” value ([1]; SARS2, 1 μM, 100=DMSO control) was 90.24 and the “Percentage Inhibition Average 5 μM” value ([1]; SARS2, 5 μM) was 45.25%. The “Screening data (Relative infection to DMSO controls) Average 5 μM” value ([1]; SARS2, 5 μM, 100=DMSO control) was 54.75, the “Percentage Inhibition Average 10 μM” value ([1]; SARS2, 10 μM) was 70.90% and the “Screening data (Relative infection to DMSO controls) Average 10 μM” value ([1]; SARS2, 10 μM, 100=DMSO control) was 29.10. The “Percentage Inhibition Average 25 μM” value ([1]; SARS2, 25 μM) was 72.89%, the “Screening data (Relative infection to DMSO controls) Average 25 μM” value ([1]; SARS2, 25 μM, 100=DMSO control) was 27.11 and the “Percentage Inhibition Average 50 μM” value ([1]; SARS2, 50 μM) was 86.46%. For the same molecule, the “Screening data (Relative infection to DMSO controls) Average 50 μM” value ([1]; SARS2, 50 μM, 100=DMSO control) was 13.54, the “Average (relative infection to DMSO over the 5 tested concentrations)” value ([1]; SARS2, average over 1 to 50 uM, 100=DMSO control) was 42.95 and the “Toxicity Data, Average, Mean (percentage relative to appropriate DMSO control)” value ([2]; 1 uM) was 104.43%. The “Relative cell count to DMSO controls, Average 1 μM” value ([2]; 1 μM, toxicity data, 100=DMSO control) was 104.43, the “Toxicity Data, Average, Mean (percentage relative to appropriate DMSO control)” value ([2]; 5 uM) was 113.44% and the “Relative cell count to DMSO controls, Average 5 μM” value ([2]; 5 μM, toxicity data, 100=DMSO control) was 113.44. The “Toxicity Data, Average, Mean (percentage relative to appropriate DMSO control)” value ([2]; 10 uM) was 120.89%, the “Relative cell count to DMSO controls, Average 10 μM” value ([2]; 10 μM, toxicity data, 100=DMSO control) was 120.89 and the “Toxicity Data, Average, Mean (percentage relative to appropriate DMSO control)” value ([2]; 25 uM) was 115.31%. The “Relative cell count to DMSO controls, Average 25 μM” value ([2]; 25 μM, toxicity data, 100=DMSO control) was 115.31, the “Toxicity Data, Average, Mean (percentage relative to appropriate DMSO control)” value ([2]; 50 uM) was 98.89% and the “Relative cell count to DMSO controls, Average 50 μM” value ([2]; 50 μM, toxicity data, 100=DMSO control) was 98.89. The “Toxicity Data, Percentage Relative to Appropriate DMSO Control” value ([2]; Exp 1 (SMW506), 1 uM) was 91% and 100%, the “Toxicity Data, Percentage Relative to Appropriate DMSO Control” value ([2]; Exp 1 (SMW506), 5 uM) was 103% and 110% and the “Toxicity Data, Percentage Relative to Appropriate DMSO Control” value ([2]; Exp 1 (SMW506), 10 uM) was 111% and 115%. The “Toxicity Data, Percentage Relative to Appropriate DMSO Control” value ([2]; Exp 1 (SMW506), 25 uM) was 109% and 115%, the “Toxicity Data, Percentage Relative to Appropriate DMSO Control” value ([2]; Exp 1 (SMW506), 50 uM) was 97% and 101% and the “Toxicity Data, Percentage Relative to Appropriate DMSO Control” value ([2]; Exp 2 (SMW507), 1 uM) was 111% and 116%. For the same molecule, the “Toxicity Data, Percentage Relative to Appropriate DMSO Control” value ([2]; Exp 2 (SMW507), 5 uM) was 115% and 126%, the “Toxicity Data, Percentage Relative to Appropriate DMSO Control” value ([2]; Exp 2 (SMW507), 10 uM) was 124% and 133% and the “Toxicity Data, Percentage Relative to Appropriate DMSO Control” value ([2]; Exp 2 (SMW507), 25 uM) was 112% and 125%. The “Toxicity Data, Percentage Relative to Appropriate DMSO Control” value ([2]; Exp 2 (SMW507), 50 uM) was 91% and 107% and the “Relative cell count to DMSO controls, Average (for correlation analysis)” value ([2]; average value over the 5 tested concentrations (1 to 50 uM)) was 110.59.
